Experimental data reported in PubChem BioAssay AID179 (DTP/NCI, 2004).
Several values for one entry are separate records, joined by “and”; a condition that tells them apart may be missing. Equal entries are not always repeated. Activity calls are given as the source filed them.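 Rule for the calls: active = compounds giving half or more protection of infected cells from virus-caused growth loss, again on retest; inactive = the rest.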

Tested on: CEM cells HIV-1 protection, formazan growth assay
Assay: NCI AIDS Antiviral Assay
Details: for IC50: measured here: growth of uninfected CEM cells
Method in brief: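 CEM (human) cells, HIV-1 infected vs uninfected, 5-point dosing, formazan growth read-out. Retest threshold 50% protection.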

## COc1cc2ccccc2cc/c1=N\O
  EC50: > 200 µM
  IC50: 41.7 µM

## FC(F)(F)c1ccccc1C1SCc2nc3ccccc3n21 (centres undefined)
  outcome: inactive

## CCN1CN(c2ccccc2)C2(CCN(CCCSc3ccc(F)cc3)CC2)C1=O
  EC50: > 200 µM
  IC50: 10 µM

## O=C(CC/C(CC(=O)c1ccc(Cl)cc1)=N\O)Nc1cccc(Cl)c1
  EC50: > 347 µM
  IC50: 257 µM

## O=c1c2ccccc2[nH]c2c(Cl)cc(Cl)c(NC3CCCCC3)c12
  EC50: > 200 µM
  IC50: 28.2 µM

## Cc1ccc(S(=O)c2cccs2)cc1 (centres undefined)
  EC50: > 1120 µM
  IC50: 182 µM

## Cc1sc(N)c(S(=O)(=O)c2ccccc2)c1C
  EC50: 166 µM
  IC50: 195 µM

## C=C=C(C)[Si](C)(C)C
  EC50: > 200 µM
  IC50: > 200 µM

## CC1(Br)CC2OC3(Br)C=CC(C)(O)C2(CC1=O)C3(C)C (centres undefined)
  outcome: inactive

## Brc1ccccc1C=NC12CC3CC(CC(C3)C1)C2
  EC50: > 22.9 µM
  IC50: > 22.9 µM

## CCOC(=O)NC(Nc1cccc(F)c1)(C(F)(F)F)C(F)(F)F
  EC50: > 200 µM
  IC50: > 200 µM

## CC(=O)CC(=O)Nc1ccccc1C(F)(F)F
  EC50: > 204 µM
  IC50: > 204 µM

## C[N+](C)(C)CC1CCCC(C[N+](C)(C)C)C1=O (centres undefined)
  outcome: inactive

## C[N+]1(CCCl)CCc2cc([N+](=O)[O-])ccc2C1 (centres undefined)
  EC50: > 200 µM
  IC50: > 200 µM

## CC(C)/C(Cl)=N\OC(NC(=O)P(=O)(c1ccccc1)c1ccccc1)(C(F)(F)F)C(F)(F)F
  EC50: > 200 µM
  IC50: 10.5 µM

## CCNc1nc2c(ncn2C2CC(O)C(COP(=O)(O)O)O2)c(=O)[nH]1 (centres undefined)
  EC50: > 100 µM
  IC50: > 100 µM

## CC(C)=CCCC(C)C1=C(O)C(=O)C(C)=CC1=O (centres undefined)
  EC50: > 2 µM
  IC50: 0.589 µM

## Cc1cc(S(=O)(=O)N=C2Nc3cccc4cccc(c34)N2)c(S)cc1Cl
  EC50: 132 µM
  IC50: 174 µM

## O=c1ccnc2ccc3n[nH][nH]c3c12
  outcome: inactive

## CC(C)CC1=C(C(=O)c2ccoc2)CC(C)C1 (centres undefined)
  EC50: > 200 µM
  IC50: > 200 µM

## Oc1ccc([C@H]2Oc3c(ccc(O)c3O)[C@@H](O)[C@H]2O)cc1O
  EC50: > 200 µM
  IC50: 29.5 µM

## O=c1cn[nH]c2ccc(F)cc12
  EC50: > 219 µM
  IC50: > 219 µM

## COc1ccc(-c2oc(/C=N/NC(N)=S)c([N+](=O)[O-])c2-c2ccc(OC)c(OC)c2)cc1OC
  EC50: > 20.4 µM
  IC50: > 20.4 µM

## CCOC(=O)CCC[P+](c1ccccc1)(c1ccccc1)c1ccccc1
  EC50: > 200 µM
  IC50: 22.4 µM and 7.76 µM

## C[N+](C)(C)CC1CCC/C1=N\OC(=O)c1ccccc1 (centres undefined)
  EC50: > 617 µM
  IC50: > 617 µM

## COc1ccc(NC(=O)CC(=O)N2N=C(N(CCC#N)c3ccccc3Cl)CC2c2ccccc2)cc1 (centres undefined)
  EC50: > 50.1 µM
  IC50: > 50.1 µM

## S=c1[nH]c2ccccc2o1
  EC50: > 200 µM
  IC50: 166 µM

## O=c1c2cc3c(=O)n(O)c(=O)c3cc2c(=O)n1O
  EC50: > 200 µM
  IC50: > 200 µM

## N[C@@H](CSSCCO)C(=O)O
  EC50: > 200 µM
  IC50: > 200 µM

## C[CH2][Sn]([CH2]C)([O]C(=O)c1ccccc1OC)[O][Sn]([CH2]C)([CH2]C)[O]C(=O)c1ccccc1OC
  EC50: > 38.9 µM
  IC50: 29.5 µM

## COC1C(C)OC(OC2CC(C)(O)Cc3cc4c(c(O)c32)C(=O)c2c(O)cc3c(c2C4=O)OC2OC3(C)C(O)C(N(C)C)C2O)C(OC)C1(C)OC (centres undefined)
  outcome: inactive

## COCCn1cnc2c(Cl)nc(Nc3ccccc3)nc21
  EC50: > 200 µM
  IC50: 28.8 µM

## C[Si](C)(C)C1(Sc2ccccc2)SCCCS1
  outcome: inactive

## O=C(c1ccc(Cl)cc1)c1ccc(N=[N+]([O-])c2ccc(C(=O)c3ccc(Cl)cc3)cc2)cc1
  EC50: > 100 µM
  IC50: > 100 µM

## Cn1cnc(N2CCCC2)c(C#N)c1=S
  EC50: > 200 µM
  IC50: > 200 µM

## Cc1cc2c(C(C)C)c(O)c(O)c3coc(/c1=c1/c(C)cc4c(C(C)C)c(=O)c(=O)c5coc1c45)c32
  EC50: > 53.7 µM
  IC50: 8.91 µM

## O=C(/C(=C/c1ccc([N+](=O)[O-])cc1)c1ccccc1)c1ccccc1
  EC50: > 8.32 µM
  IC50: 5.25 µM

## COCCN1C(=O)C(NC(C)=O)[C@H]1COC(C)(C)C (some centres undefined)
  EC50: > 661 µM
  IC50: > 661 µM

## O=C1[C@@H]2[C@@H](CN3CN(c4ccccc4)N=C(c4ccccc4)[C@@]23c2ccccc2)C(=O)N1c1ccccc1
  EC50: > 20 µM
  IC50: 2.95 µM

## NC(CCP(=O)(O)CCC1C=CC=CC1)C(=O)O (centres undefined)
  EC50: > 200 µM
  IC50: > 200 µM

## c1ccc(Cn2cc(CCc3ccncc3)c3ccccc32)cc1
  EC50: > 200 µM
  IC50: 28.2 µM

## CN(C)CC/C(=N\Nc1ccc([N+](=O)[O-])cc1)c1ccccc1
  outcome: inactive

## CCN(CC)CC(C)(C)C(=O)/C=C/c1ccc(C)cc1
  outcome: inactive

## O=c1ssc(Cl)c1-c1ccccc1
  EC50: > 200 µM
  IC50: 10.2 µM

## O=c1[nH]ncc(N/N=C(/C=C/c2ccc(C/C(=N/Nc3cn[nH]c(=O)c3Cl)c3ccccc3)cc2)c2ccccc2)c1Cl
  outcome: inactive

## CCC(Oc1ccc(OC)c2ccccc(=O)c12)C(=O)O (centres undefined)
  outcome: inactive

## CCCCCCN(N)C(=O)CC#N
  EC50: > 39.8 µM
  IC50: > 39.8 µM
